Measured values as given in patent US8586588B2, “Aryl pyridazinone derivatives and their use as H3 receptor ligands” (Cephalon, Inc., priority 2006, dated 2013).
Where a name gives a salt, the structure may show the parent alone.

melting point	Compound
193 to 195 °C	C[C@@H]1CCCN1CCCOc1ccc2c(c1)CCC1CC(=O)NN=C21 (some centres unmarked) (as salt: HCl) [Example 212, 8-[3-(2-Methyl-pyrrolidin-1-yl)-propoxy]-4,4a,5,6-tetrahydro-2H-benzo[h]cinnolin-3-one]
139 to 140.5 °C	COCn1ncc(-c2ccc(OCCCN3CCC[C@H]3C)cc2C)cc1=O (as salt: HCl) [Example 230, 2-Methoxymethyl-5-{2-methyl-4-[3-((R)-2-methyl-pyrrolidin-1-yl)-propoxyl]-phenyl}-2H-pyridazin-3-one]
186 to 188 °C	Cc1cc(OCCCN2CCC[C@H]2C)ccc1-c1cn[nH]c(=O)c1 (as salt: HCl) [Example 231, 5-{2-methyl-4-[3-((R)-2-methyl-pyrrolidin-1-yl)-propoxyl]-phenyl}-2H-pyridazin-3-one]
246 to 248 °C	CCN1N=C(c2ccc(OC3CCN(C4CCC4)CC3)cc2)C2CC2C1=O (centres unmarked) (as salt: HCl) [Example 250, 5-[4-(1-Cyclobutyl-piperidin-4-yloxy)-phenyl]-3-ethyl-3,4-diaza-bicyclo[4.1.0]hept-4-en-2-one]
147 to 149 °C	O=C1C2CC2C(c2ccc(OC3CCN(C4CCC4)CC3)cc2)=NN1c1ccc(F)cc1 (centres unmarked) (as salt: HCl) [Example 253, 5-[4-(1-Cyclobutyl-piperidin-4-yloxy)-phenyl]-3-(4-fluoro-phenyl)-3,4-diaza-bicyclo[4.1.0]hept-4-en-2-one]
110 to 121 °C	O=C1C2CC2C(c2ccc(OC3CCN(C4CCC4)CC3)cc2)=NN1CC(F)(F)F (centres unmarked) (as salt: HCl) [Example 254, 5-[4-(1-Cyclobutyl-piperidin-4-yloxy)-phenyl]-3-(2,2,2-trifluoro-ethyl)-3,4-diaza-bicyclo[4.1.0]hept-4-en-2-one]
168 to 170 °C	Cc1ccc(=O)n(-c2ccc(OCCCN3CCC[C@H]3C)cc2)n1 (as salt: fumarate) [Example 201, 6-Methyl-2-{4-[3-((R)-2-methyl-pyrrolidin-1-yl)-propoxy]-phenyl}-2H-pyridazin-3-one]
155 to 159 °C	O=c1ccc(-c2ccccc2)nn1-c1ccc(OC2CCN(C3CCC3)CC2)nc1 (as salt: fumarate) [Example 203, 2-[6-(1-Cyclobutyl-piperidin-4-yloxy)-pyridin-3-yl]-6-phenyl-2H-pyridazin-3-one]
51 to 55 °C	C[C@@H]1CCCN1CCCOc1ccc(-n2nc(C3CC3)ccc2=O)cc1 (as salt: fumarate) [Example 262, 6-Cyclopropyl-2-{4-[3-((R)-2-methyl-pyrrolidin-1-yl)-propoxy]-phenyl}-2H-pyridazin-3-one]
252 to 253 °C	C[C@@H]1CCCN1CCCOc1ccc2cnn(C)c(=O)c2c1 (as salt: hydrochloride) [Example 79, 2-Methyl-7-[3-((R)-2-methyl-pyrrolidin-1-yl)-propoxy]-2H-phthalazin-1-one]
222 to 223 °C	C[C@@H]1CCCN1CCCOc1ccc(-c2cnn(C)c(=O)c2)cc1 (as salt: hydrochloride) [Example 91, 2-Methyl-5-{4-[3-((R)-2-methyl-pyrrolidin-1-yl)-propoxy]-phenyl}-2H-pyridazin-3-one]
247 to 248 °C	Cn1ncc(-c2ccc(OCCCN3CCCCCC3)cc2)cc1=O (as salt: hydrochloride) [Example 93, 5-[4-(3-Azepan-1-yl-propoxy)-phenyl]-2-methyl-2H-pyridazin-3-one]

Continued, compound first:

Compound	melting point
Cc1cc(OCCCN2CCC[C@H]2C)ccc1C1=NNC(=O)CC1 (as salt: HCl) [Example 199, 6-{(R)-2-Methyl-4-[3-(2-methyl-pyrrolidin-1-yl)-propoxy]-phenyl}-4,5-dihydro-2H-pyridazin-3-one]	121 to 123 °C
C[C@@H]1CCCN1CCCOc1ccc2c(c1)CCc1cc(=O)[nH]nc1-2 (as salt: HCl) [Example 209, 8-[3-((R)-2-Methyl-pyrrolidin-1-yl)-propoxy]-5,6-dihydro-2H-benzo[h]cinnolin-3-one]	289 to 292 °C
O=C1CCC(c2ccc(OC3CCN(C4CCC4)CC3)cc2F)=NN1 (as salt: HCl) [Example 219, 6-[4-(1-Cyclobutyl-piperidin-4-yloxy)-2-fluoro-phenyl]-4,5-dihydro-2H-pyridazin-3-one]	> 300 °C
COCn1ncc(-c2ccc(OCCCN3CCCCC3)cc2C)cc1=O (as salt: HCl) [Example 232, 2-Methoxymethyl-5-[2-methyl-4-(3-piperidin-1-yl-propoxy)-phenyl]-2H-pyridazin-3-one]	185 to 197 °C (dec.)
COCn1ncc(-c2ccc(OC3CCN(C4CCC4)CC3)cc2C)cc1=O (as salt: HCl) [Example 234, 5-[4-(1-Cyclobutyl-piperidin-4-yloxy)-2-methyl-phenyl]-2-methoxymethyl-2H-pyridazin-3-one]	119.5 to 123.5 °C
CN1N=C(c2ccc(OC3CCN(C4CCC4)CC3)cc2)C2CC2C1=O (centres unmarked) (as salt: HCl) [Example 252, 5-[4-(1-Cyclobutyl-piperidin-4-yloxy)-phenyl]-3-methyl-3,4-diaza-bicyclo[4.1.0]hept-4-en-2-one]	243 to 245 °C
CN1N=C(c2ccc(OC3CCN(C4CCCC4)CC3)cc2)C2CC2C1=O (centres unmarked) (as salt: HCl) [Example 260, 5-[4-(1-Cyclopentyl-piperidin-4-yloxy)-phenyl]-3-methyl-3,4-diaza-bicyclo[4.1.0]hept-4-en-2-one]	264 to 266 °C
O=C1NN=C(c2ccc(OC3CCN(C4CCCC4)CC3)cc2)C2CC12 (centres unmarked) (as salt: HCl) [Example 261, 5-[4-(1-Cyclopentyl-piperidin-4-yloxy)-phenyl]-3,4-diaza-bicyclo[4.1.0]hept-4-en-2-one]	288 to 290 °C
Cc1nn(C)c(=O)cc1-c1ccc(OCCCN2CCCCC2)cc1 (as salt: hydrochloride) [Example 87, 2,6-Dimethyl-5-[4-(3-piperidin-1-yl-propoxy)-phenyl]-2H-pyridazin-3-one]	210 to 211 °C
Cc1n[nH]c(=O)cc1-c1ccc(OCCCN2CCC[C@H]2C)cc1 (as salt: hydrochloride) [Example 88, 6-Methyl-5-{4-[3-((R)-2-methyl-pyrrolidin-1-yl)-propoxy]-phenyl}-2H-pyridazin-3-one]	115 °C (dec.)
Cc1n[nH]c(=O)cc1-c1ccc(OCCCN2CCCCCC2)cc1 (as salt: hydrochloride) [Example 90, 5-[4-(3-Azepan-1-yl-propoxy)-phenyl]-6-methyl-2H-pyridazin-3-one]	204 to 206 °C
Cn1ncc(-c2ccc(OCCCN3CCCCC3)cc2)cc1=O (as salt: hydrochloride) [Example 92, 2-Methyl-5-[4-(3-piperidin-1-yl-propoxy)-phenyl]-2H-pyridazin-3-one]	253 to 254 °C
O=c1cc(-c2ccc(OCCCN3CCCCC3)cc2)cn[nH]1 (as salt: hydrochloride) [Example 97]	249 to 250 °C
Cc1cccnc1-n1ncc(-c2ccc(OCCCN3CCC[C@H]3C)cc2)cc1=O (as salt: hydrochloride) [Example 99, 2-(3-Methyl-pyridin-2-yl)-5-{4-[3-((R)-2-methylpyrrolidin-1-yl)-propoxy]-phenyl}-2H-pyridazin-3-one]	98 to 100 °C
